Laboratory results as given in ChEMBL document CHEMBL3853350 (ACS Med Chem Lett, 2016).

What was measured:
[1] = Half life in mouse hepatocytes at 1 uM by LC/MS analysis; format: ADME, cell-based, Hepatocyte
[2] = Fraction unbound in monkey plasma at 1 uM after 5 hrs by rapid equilibrium dialysis based LC-MS/MS analysis; format: ADME, cell-free, Macaca mulatta; conditions: rhesus monkey
Salmonella typhimurium = test: Genotoxicity in Salmonella typhimurium by Ames test; format: toxicity, organism-based; conditions: salmonella enterica subsp. enterica serovar typhimurium
[3] = molecular target: Voltage-gated inwardly rectifying potassium channel KCNH2 (Homo sapiens, UniProt Q12809); test: Inhibition of human ERG
Voltage-gated inwardly rectifying potassium channel KCNH2, sequence (Q12809 whole entry): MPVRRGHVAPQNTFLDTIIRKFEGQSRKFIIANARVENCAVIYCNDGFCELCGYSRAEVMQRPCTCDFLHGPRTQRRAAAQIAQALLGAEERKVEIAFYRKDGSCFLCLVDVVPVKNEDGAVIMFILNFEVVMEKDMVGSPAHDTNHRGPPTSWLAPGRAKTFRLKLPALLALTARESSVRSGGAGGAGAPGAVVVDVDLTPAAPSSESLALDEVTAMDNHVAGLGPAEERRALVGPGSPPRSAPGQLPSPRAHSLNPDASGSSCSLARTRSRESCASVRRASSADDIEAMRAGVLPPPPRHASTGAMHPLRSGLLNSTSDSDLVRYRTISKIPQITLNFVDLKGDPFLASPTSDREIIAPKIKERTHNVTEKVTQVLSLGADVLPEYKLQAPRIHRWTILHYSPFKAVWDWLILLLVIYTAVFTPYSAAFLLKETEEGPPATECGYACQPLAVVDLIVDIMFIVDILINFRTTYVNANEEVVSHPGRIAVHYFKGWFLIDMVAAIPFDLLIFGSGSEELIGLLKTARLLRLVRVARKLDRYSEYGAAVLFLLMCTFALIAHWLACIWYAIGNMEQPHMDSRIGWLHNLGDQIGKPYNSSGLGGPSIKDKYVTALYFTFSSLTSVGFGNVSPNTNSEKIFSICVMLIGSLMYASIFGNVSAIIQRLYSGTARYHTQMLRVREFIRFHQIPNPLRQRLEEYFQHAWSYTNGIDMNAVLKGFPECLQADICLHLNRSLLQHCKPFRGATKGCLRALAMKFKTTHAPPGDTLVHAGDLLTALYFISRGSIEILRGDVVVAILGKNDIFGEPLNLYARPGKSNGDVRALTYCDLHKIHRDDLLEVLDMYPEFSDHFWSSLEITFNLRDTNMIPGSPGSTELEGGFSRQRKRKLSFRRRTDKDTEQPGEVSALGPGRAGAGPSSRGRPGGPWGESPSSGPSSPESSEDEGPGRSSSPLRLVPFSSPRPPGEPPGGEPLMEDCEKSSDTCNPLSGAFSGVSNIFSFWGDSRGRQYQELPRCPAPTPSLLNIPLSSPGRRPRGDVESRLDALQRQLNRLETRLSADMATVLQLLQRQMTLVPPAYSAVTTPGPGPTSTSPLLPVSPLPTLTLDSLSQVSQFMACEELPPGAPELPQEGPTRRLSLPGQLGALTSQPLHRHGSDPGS

[4] = Apparent permeability from apical to basolateral side in human Caco2 cells at 10 uM by lucifer yellow flux assay; format: ADME, cell-based; conditions: Caco-2
[5] = Fraction unbound in human plasma at 1 uM after 5 hrs by rapid equilibrium dialysis based LC-MS/MS analysis; format: ADME, cell-free
[6] = Half life in human hepatocytes at 1 uM by LC/MS analysis; format: ADME, cell-based, Hepatocyte
[7] = Fraction unbound in mouse plasma at 1 uM after 5 hrs by rapid equilibrium dialysis based LC-MS/MS analysis; format: ADME, cell-free
[8] = Fraction unbound in rat plasma at 1 uM after 5 hrs by rapid equilibrium dialysis based LC-MS/MS analysis; format: ADME, cell-free
[9] = Fraction unbound in dog plasma at 1 uM after 5 hrs by rapid equilibrium dialysis based LC-MS/MS analysis; format: ADME, cell-free, Canis lupus familiaris
Cytochrome P450 1A2 = molecular target: T1, Cytochrome P450 1A2 (Homo sapiens, UniProt P05177); test: Inhibition of CYP1A2 in human liver microsomes after 5 mins in presence of NADPH by LC-MS/MS analysis; format: ADME
T1 sequence (P05177 whole entry): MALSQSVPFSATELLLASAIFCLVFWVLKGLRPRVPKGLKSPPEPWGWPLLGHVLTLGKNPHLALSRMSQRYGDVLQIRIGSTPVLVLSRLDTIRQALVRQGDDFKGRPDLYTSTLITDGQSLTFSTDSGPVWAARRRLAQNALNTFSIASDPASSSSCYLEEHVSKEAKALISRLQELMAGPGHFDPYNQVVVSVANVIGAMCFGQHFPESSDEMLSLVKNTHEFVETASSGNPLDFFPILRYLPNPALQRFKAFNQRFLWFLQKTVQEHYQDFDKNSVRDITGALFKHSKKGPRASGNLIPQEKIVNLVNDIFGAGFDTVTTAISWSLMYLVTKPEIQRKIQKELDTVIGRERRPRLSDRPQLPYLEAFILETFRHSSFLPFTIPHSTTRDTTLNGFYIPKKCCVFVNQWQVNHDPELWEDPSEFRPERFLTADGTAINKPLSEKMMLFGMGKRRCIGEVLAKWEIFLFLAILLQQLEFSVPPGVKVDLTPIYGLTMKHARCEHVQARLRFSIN

Cytochrome P450 2C8 = molecular target: T2, Cytochrome P450 2C8 (Homo sapiens, UniProt P10632); test: Inhibition of CYP2C8 in human liver microsomes after 5 mins in presence of NADPH by LC-MS/MS analysis; format: ADME
T2 sequence (P10632 whole entry): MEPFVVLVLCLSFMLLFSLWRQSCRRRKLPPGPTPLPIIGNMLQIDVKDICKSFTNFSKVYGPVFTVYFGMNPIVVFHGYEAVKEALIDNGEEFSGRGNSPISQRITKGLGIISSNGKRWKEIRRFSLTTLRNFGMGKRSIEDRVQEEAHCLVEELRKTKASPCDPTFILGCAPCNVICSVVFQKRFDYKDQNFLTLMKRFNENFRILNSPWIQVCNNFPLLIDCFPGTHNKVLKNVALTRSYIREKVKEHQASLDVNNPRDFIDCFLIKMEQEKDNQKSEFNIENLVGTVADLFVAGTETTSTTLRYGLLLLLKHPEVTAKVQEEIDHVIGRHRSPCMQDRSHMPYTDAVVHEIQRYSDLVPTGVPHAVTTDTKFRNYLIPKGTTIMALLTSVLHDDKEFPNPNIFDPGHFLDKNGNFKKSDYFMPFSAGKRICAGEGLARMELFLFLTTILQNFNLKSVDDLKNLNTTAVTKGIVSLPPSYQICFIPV

Cytochrome P450 2C9 = Cytochrome P450 2C9 (Homo sapiens, UniProt P11712); test: Inhibition of CYP2C9 in human liver microsomes after 5 mins in presence of NADPH by LC-MS/MS analysis; format: ADME
Cytochrome P450 2C9, sequence (P11712 whole entry): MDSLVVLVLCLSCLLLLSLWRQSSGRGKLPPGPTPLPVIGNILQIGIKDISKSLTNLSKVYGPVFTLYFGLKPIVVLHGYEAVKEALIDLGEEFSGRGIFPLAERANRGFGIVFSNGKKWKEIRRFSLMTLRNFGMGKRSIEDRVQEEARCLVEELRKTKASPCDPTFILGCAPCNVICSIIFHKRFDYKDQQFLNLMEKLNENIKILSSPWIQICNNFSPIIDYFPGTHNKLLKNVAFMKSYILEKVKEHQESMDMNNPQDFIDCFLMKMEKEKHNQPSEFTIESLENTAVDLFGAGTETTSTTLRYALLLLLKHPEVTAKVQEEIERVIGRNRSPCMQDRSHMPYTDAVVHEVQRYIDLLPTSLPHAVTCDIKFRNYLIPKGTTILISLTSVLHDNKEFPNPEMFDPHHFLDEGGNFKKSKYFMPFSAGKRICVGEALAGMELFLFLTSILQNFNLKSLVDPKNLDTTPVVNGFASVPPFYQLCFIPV

Cytochrome P450 2C19 = Cytochrome P450 2C19 (Homo sapiens, UniProt P33261); test: Inhibition of CYP2C19 in human liver microsomes after 5 mins in presence of NADPH by LC-MS/MS analysis; format: ADME
Cytochrome P450 2C19, sequence (P33261 whole entry): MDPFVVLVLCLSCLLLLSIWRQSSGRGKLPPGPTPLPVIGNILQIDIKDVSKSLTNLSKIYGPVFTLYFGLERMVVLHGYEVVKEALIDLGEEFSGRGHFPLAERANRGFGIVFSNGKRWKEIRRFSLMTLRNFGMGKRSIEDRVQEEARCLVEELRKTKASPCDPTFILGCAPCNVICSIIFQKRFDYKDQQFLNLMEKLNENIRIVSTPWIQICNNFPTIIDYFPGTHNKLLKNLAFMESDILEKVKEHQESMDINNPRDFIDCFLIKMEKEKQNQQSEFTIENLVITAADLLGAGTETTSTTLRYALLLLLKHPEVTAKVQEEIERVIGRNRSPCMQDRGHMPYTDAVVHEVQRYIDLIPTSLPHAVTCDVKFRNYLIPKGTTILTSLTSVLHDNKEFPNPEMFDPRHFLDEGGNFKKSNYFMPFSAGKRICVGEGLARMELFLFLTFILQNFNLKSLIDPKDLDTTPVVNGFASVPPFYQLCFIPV

Cytochrome P450 2D6 = Cytochrome P450 2D6 (Homo sapiens, UniProt P10635); test: Inhibition of CYP2D6 in human liver microsomes after 5 mins in presence of NADPH by LC-MS/MS analysis; format: ADME
Cytochrome P450 2D6, sequence (P10635 whole entry): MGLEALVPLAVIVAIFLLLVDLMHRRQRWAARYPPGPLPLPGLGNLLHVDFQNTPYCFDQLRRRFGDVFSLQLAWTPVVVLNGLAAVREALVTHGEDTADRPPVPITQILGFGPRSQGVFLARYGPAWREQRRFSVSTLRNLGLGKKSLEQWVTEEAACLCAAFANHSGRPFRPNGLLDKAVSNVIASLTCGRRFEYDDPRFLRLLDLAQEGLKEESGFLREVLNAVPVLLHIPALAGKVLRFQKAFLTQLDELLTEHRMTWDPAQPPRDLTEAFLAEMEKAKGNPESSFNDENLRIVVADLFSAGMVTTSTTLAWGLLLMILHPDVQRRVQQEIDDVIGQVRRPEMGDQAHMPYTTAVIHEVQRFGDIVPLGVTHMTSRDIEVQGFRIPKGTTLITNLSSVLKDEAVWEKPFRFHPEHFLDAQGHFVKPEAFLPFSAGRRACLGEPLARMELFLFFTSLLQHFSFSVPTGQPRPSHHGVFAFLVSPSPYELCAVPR

[10] = Cmax in CD-1 mouse plasma at 5 mg/kg administered via oral gavage measured 24 hrs post dose by LC/MS/MS analysis; format: ADME, organism-based; parameters: dose 5 mg/kg, route oral
[11] = AUC (0 to infinity) in CD-1 mouse plasma at 5 mg/kg administered via oral gavage measured 24 hrs post dose by LC/MS/MS analysis; format: ADME, organism-based; parameters: dose 5 mg/kg, time infinity, route oral
[12] = Half life in CD-1 mouse plasma at 1 mg/kg, iv by LC/MS/MS analysis; format: ADME, organism-based
[13] = Clearance in CD-1 mouse plasma at 1 mg/kg, iv measured 24 hrs post dose by LC/MS/MS analysis; format: ADME, organism-based
[14] = Cmax in Sprague-Dawley rat plasma at 5 mg/kg administered via oral gavage measured 24 hrs post dose by LC/MS/MS analysis; format: ADME, organism-based; parameters: dose 5 mg/kg, route oral
[15] = AUC (0 to infinity) in Sprague-Dawley rat plasma at 5 mg/kg administered via oral gavage measured 24 hrs post dose by LC/MS/MS analysis; format: ADME, organism-based; parameters: dose 5 mg/kg, time infinity, route oral
[16] = Half life in Sprague-Dawley rat plasma at 1 mg/kg, iv by LC/MS/MS analysis; format: ADME, organism-based
[17] = Clearance in Sprague-Dawley rat plasma at 1 mg/kg, iv measured 24 hrs post dose by LC/MS/MS analysis; format: ADME, organism-based
[18] = Volume of distribution at steady state in Sprague-Dawley rat plasma at 1 mg/kg, iv measured 24 hrs post dose by LC/MS/MS analysis; format: ADME, organism-based; conditions: read-out: Vdss
[19] = Oral bioavailability in Sprague-Dawley rat plasma at 5 mg/kg measured 24 hrs post dose by LC/MS/MS analysis; format: ADME, organism-based
[20] = Clearance in Beagle dog plasma at 0.5 mg/kg, iv measured 24 hrs post dose by LC/MS/MS analysis; format: ADME, organism-based, Canis lupus familiaris
[21] = Oral bioavailability in Beagle dog plasma at […] measured 24 hrs post dose by LC/MS/MS analysis; format: ADME, organism-based, Canis lupus familiaris
[22] = AUC (0 to infinity) in cynomolgus monkey plasma at […] administered via oral gavage measured 24 hrs post dose by LC/MS/MS analysis; format: ADME, organism-based, Macaca fascicularis; parameters: dose 2.5 mg/kg, route oral, time infinity
[23] = Half life in cynomolgus monkey plasma at 0.5 mg/kg, iv by LC/MS/MS analysis; format: ADME, organism-based, Macaca fascicularis
[24] = Clearance in cynomolgus monkey plasma at 0.5 mg/kg, iv measured 24 hrs post dose by LC/MS/MS analysis; format: ADME, organism-based, Macaca fascicularis
[25] = Volume of distribution at steady state in cynomolgus monkey plasma at 0.5 mg/kg, iv measured 24 hrs post dose by LC/MS/MS analysis; format: ADME, organism-based, Macaca fascicularis; conditions: read-out: Vdss
[26] = Oral bioavailability in cynomolgus monkey plasma at […] measured 24 hrs post dose by LC/MS/MS analysis; format: ADME, organism-based, Macaca fascicularis

C[C@H](NC(=O)c1c(N)nn2cccnc12)c1cc2cccc(C#Cc3cnn(C)c3)c2c(=O)n1-c1ccccc1 [EGANELISIB]
half-life at 1 µM [1]: > 360 min
fraction unbound at 5 h, 1 µM [2]: 0.04
Activity (Salmonella typhimurium): Non-Toxic
IC50 [3]: > 10 µM
Papp A→B at 10 µM [4]: 13 ×10⁻⁶ cm/s
fraction unbound at 5 h, 1 µM [5]: 0.011
half-life at 1 µM [6]: > 360 min
fraction unbound at 5 h, 1 µM [7]: 0.022
fraction unbound at 5 h, 1 µM [8]: 0.028
fraction unbound at 5 h, 1 µM [9]: 0.028
IC50 (Cytochrome P450 1A2): > 20 µM
IC50 (Cytochrome P450 2C8): > 20 µM
IC50 (Cytochrome P450 2C9): > 20 µM
IC50 (Cytochrome P450 2C19): > 20 µM
IC50 (Cytochrome P450 2D6): > 20 µM
Cmax [10]: 3.6 µM
AUC(0-inf) [11]: 20600 ng·h/mL
half-life [12]: 192 min
clearance [13]: 3.6 mL/min/kg
Cmax [14]: 2000 nM
AUC(0-inf) [15]: 8050 ng·h/mL
half-life [16]: 264 min
clearance [17]: 4.4 mL/min/kg
Vd [18]: 1.2 L/kg
bioavailability [19]: 57%
clearance [20]: 2.8 mL/min/kg
bioavailability at 24 h [21]: 65%
AUC(0-inf) at 24 h [22]: 4030 ng·h/mL
half-life [23]: 258 min
clearance [24]: 4.3 mL/min/kg
Vd [25]: 1.3 L/kg
bioavailability at 24 h [26]: 31%
